# Measured values published in patent US20250147039A1, “Compounds for complexation of rare earth elements and/or s-, p-, d- block metals, their coordination compounds, peptide conjugates, method of their preparation and use thereof” (USTAV ORGANICKE CHEMIE A BIOCHEMIE AV CR V.V.I., priority 2021, published 2025).
# How the values were obtained:
# [1] = Formation of 1,5-cz-[M(Lig)] from Lig and M^III ions (metal dependent click-zip) (Charts 4, 5); type: physicochemical; conditions: MOPS/NaOH buffer pH 7.0, TD728, TD827 in 50% i-PrOH; for conversion to 1,5-cz-[M(Lig)], Y^III: TD714 sum of two diastereoisomers
# [2] = Formation of 1,5-cz-[Ln(Lig)] from Lig and Ln^III ions (metal dependent click-zip), MOPS/NaOH buffer pH 7.0, analytical HPLC (Charts 1, 2); conditions: MOPS/NaOH buffer pH 7.0
smiles,measurement,setting,value
C#Cc1cccc(CN2CCN(CC(=O)O)CCN(Cc3cc(N(C)C)cc(CN=[N+]=[N-])n3)CCN(CC(=O)O)CC2)n1 [TD1176],"conversion to 1,5-cz-[M(Lig)], Sc^III",[1]; 1 week at 80° C.,31%
same,"conversion to 1,5-cz-[M(Lig)], Y^III",[1]; 1 week at 80° C.,95%
same,"conversion to 1,5-cz-[M(Lig)], Sc^III",[1]; 1 hour at 80° C.,6%
same,"conversion to 1,5-cz-[M(Lig)], Y^III",[1]; 1 hour at 80° C.,30%
same,"conversion to 1,5-cz-[Ln(Lig)], Ce^III",[2]; after 1 week at 80° C.,60%
same,"conversion to 1,5-cz-[Ln(Lig)], Ce^III",[2]; after 1 hour at 80° C.,0%
same,"conversion to 1,5-cz-[Ln(Lig)], Dy^III",[2]; after 1 week at 80° C.,96%
same,"conversion to 1,5-cz-[Ln(Lig)], Dy^III",[2]; after 1 hour at 80° C.,20%
same,"conversion to 1,5-cz-[Ln(Lig)], Er^III",[2]; after 1 week at 80° C.,96%
same,"conversion to 1,5-cz-[Ln(Lig)], Er^III",[2]; after 1 hour at 80° C.,46%
same,"conversion to 1,5-cz-[Ln(Lig)], Eu^III",[2]; after 1 week at 80° C.,93%
same,"conversion to 1,5-cz-[Ln(Lig)], Eu^III",[2]; after 1 hour at 80° C.,6%
same,"conversion to 1,5-cz-[Ln(Lig)], Gd^III",[2]; after 1 week at 80° C.,91%
same,"conversion to 1,5-cz-[Ln(Lig)], Gd^III",[2]; after 1 hour at 80° C.,7%
same,"conversion to 1,5-cz-[Ln(Lig)], Ho^III",[2]; after 1 week at 80° C.,96%
same,"conversion to 1,5-cz-[Ln(Lig)], Ho^III",[2]; after 1 hour at 80° C.,31%
same,"conversion to 1,5-cz-[Ln(Lig)], La^III",[2]; after 1 week at 80° C.,73%
same,"conversion to 1,5-cz-[Ln(Lig)], La^III",[2]; after 1 hour at 80° C.,0%
same,"conversion to 1,5-cz-[Ln(Lig)], Lu^III",[2]; after 1 week at 80° C.,96%
same,"conversion to 1,5-cz-[Ln(Lig)], Lu^III",[2]; after 1 hour at 80° C.,85%
same,"conversion to 1,5-cz-[Ln(Lig)], Nd^III",[2]; after 1 week at 80° C.,85%
same,"conversion to 1,5-cz-[Ln(Lig)], Nd^III",[2]; after 1 hour at 80° C.,2%
same,"conversion to 1,5-cz-[Ln(Lig)], Pr^III",[2]; after 1 week at 80° C.,82%
same,"conversion to 1,5-cz-[Ln(Lig)], Pr^III",[2]; after 1 hour at 80° C.,1%
same,"conversion to 1,5-cz-[Ln(Lig)], Sm^III",[2]; after 1 week at 80° C.,92%
same,"conversion to 1,5-cz-[Ln(Lig)], Sm^III",[2]; after 1 hour at 80° C.,5%
same,"conversion to 1,5-cz-[Ln(Lig)], Tb^III",[2]; after 1 week at 80° C.,94%
same,"conversion to 1,5-cz-[Ln(Lig)], Tb^III",[2]; after 1 hour at 80° C.,14%
same,"conversion to 1,5-cz-[Ln(Lig)], Tm^III",[2]; after 1 week at 80° C.,96%
same,"conversion to 1,5-cz-[Ln(Lig)], Tm^III",[2]; after 1 hour at 80° C.,63%
same,"conversion to 1,5-cz-[Ln(Lig)], Yb^III",[2]; after 1 week at 80° C.,97%
same,"conversion to 1,5-cz-[Ln(Lig)], Yb^III",[2]; after 1 hour at 80° C.,75%
